# Experimental data published in patent US9850225B2, “Compounds useful as immunomodulators” (BRISTOL-MYERS SQUIBB COMPANY, priority 2014, dated 2017).
# Biological target: PD-1/PD-L1 interaction (PD-1-Ig / PD-L1-His) (Homo sapiens (Human), UniProt Q9NZQ7)
# Assay: PD-1/PD-L1 Homogenous Time-Resolved Fluorescence (HTRF) binding assay
# Conditions: PD-1/PD-L1 HTRF binding assay; numeric value; read-out: Range or IC50
# Description: The ability of the compounds of formula (I) to bind to PD-L1 was investigated using a PD-1/PD-L1 Homogenous Time-Resolved Fluorescence (HTRF) binding assay.
# Homogenous Time-Resolved Fluorescence (HTRF) Binding Assay.
# The interaction of PD-1 and PD-L1 can be assessed using soluble, purified preparations of the extracellular domains of the two proteins. The PD-1 and PD-L1 protein extracellular domains were expressed as fusion proteins with detection tags, for PD-1, the tag was the Fc portion of Immunoglobulin (PD-1-Ig) and for PD-L1 it was the 6 histidine motif (PD-L1-His). All binding studies were performed in an HTRF assay buffer consisting of dPBS supplemented with 0.1% […] bovine serum albumin and 0.05% (v/v) Tween-20. For the h/PD-L1-His binding assay, inhibitors were pre-incubated with PD-L1-His (10 nM final) for 15 m in 4 μl of assay buffer, followed by addition of PD-1-Ig (20 nM final) in 1 μl of assay buffer and further incubation for 15 m. HTRF detection was achieved using europium crypate-labeled anti-Ig (1 nM final) and allophycocyanin (APC) labeled anti-His (20 nM final). Antibodies were diluted in HTRF detection buffer and 5 μl was dispensed on top of the binding reaction. […] Additional binding assays were established between the human proteins PD-1-Ig/PD-L2-His (20 & 5 nM, respectively) and CD80-His/PD-L1-Ig (100 & 10 nM, respectively). […]
# Chain of PD-1/PD-L1 interaction (PD-1-Ig / PD-L1-His) (Q9NZQ7 other isoform, or with tags, fused parts or gaps): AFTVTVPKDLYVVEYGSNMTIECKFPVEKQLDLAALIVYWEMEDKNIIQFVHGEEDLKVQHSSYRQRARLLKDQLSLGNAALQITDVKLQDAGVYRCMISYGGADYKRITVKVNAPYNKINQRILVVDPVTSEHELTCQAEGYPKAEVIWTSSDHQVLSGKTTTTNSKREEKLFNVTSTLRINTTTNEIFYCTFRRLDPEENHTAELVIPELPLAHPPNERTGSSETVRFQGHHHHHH
row,SMILES,IC50 [nM]
1,"CC(=O)NCCNCc1ccc(OCc2cccc(-c3ccccc3)c2C)cc1OCc1ccc(C(=O)O)cc1 [Example 1043, 4-((2-(((2-acetamidoethyl)amino)methyl)-5-((2-methyl-[1,1′-biphenyl]-3-yl)methoxy)phenoxy)methyl)benzoic acid]",239
2,"CC(=O)NCCNCc1ccc(OCc2cccc(-c3ccccc3)c2C)cc1OCc1ccccc1[N+](=O)[O-] [Example 1057, N-(2-((4-((2-methyl-[1,1′-biphenyl]-3-yl)methoxy)-2-((2-nitrobenzyl)oxy)benzyl)amino)ethyl)acetamide]",986

# Same assay, conditions: PD-1/PD-L1 HTRF binding assay; value given as range class; read-out: Range or IC50
row,SMILES,IC50 [nM]
1,"CC(=O)NCCNCc1ccc(OCc2cccc(-c3ccccc3)c2C)cc1OCc1ccc(C#N)cc1 [Example 1029, N-(2-((2-((4-cyanobenzyl)oxy)-4-((2-methyl-[1,1′-biphenyl]-3-yl)methoxy)benzyl)amino)ethyl)acetamide]",100 to 20000
2,"CC(=O)NCCNCc1ccc(OCc2cccc(-c3ccccc3)c2C)cc1OCCO [Example 1030, N-(2-((2-(2-hydroxyethoxy)-4-((2-methyl-[1,1′-biphenyl]-3-yl)methoxy)benzyl)amino)ethyl)acetamide]",100 to 20000
3,"CC(=O)NCCNCc1ccc(OCc2cccc(-c3ccccc3)c2C)cc1OCC(N)=O [Example 1031, 2-(2-(((2-acetamidoethyl)amino)methyl)-5-((2-methyl-[1,1′-biphenyl]-3-yl)methoxy)phenoxy)acetamide]",100 to 20000
4,"COC(=O)CCCCOc1cc(OCc2cccc(-c3ccccc3)c2C)ccc1CNCCNC(C)=O [Example 1032, methyl 5-(2-(((2-acetamidoethyl)amino)methyl)-5-((2-methyl-[1,1′-biphenyl]-3-yl)methoxy)phenoxy)pentanoate]",100 to 20000
5,"CC(=O)NCCNCc1ccc(OCc2cccc(-c3ccccc3)c2C)cc1OCCc1ccccc1 [Example 1033, N-(2-((4-((2-methyl-[1,1′-biphenyl]-3-yl)methoxy)-2-phenethoxybenzyl)amino)ethyl)acetamide]",100 to 20000
6,"COC(=O)c1cccc(COc2cc(OCc3cccc(-c4ccccc4)c3C)ccc2CNCCNC(C)=O)c1 [Example 1034, methyl 3-((2-(((2-acetamidoethyl)amino)methyl)-5-((2-methyl-[1,1′-biphenyl]-3-yl)methoxy)phenoxy)methyl)benzoate]",100 to 20000
7,"CC(=O)NCCNCc1ccc(OCc2cccc(-c3ccccc3)c2C)cc1OCCCO [Example 1035, N-(2-((2-(3-hydroxypropoxy)-4-((2-methyl-[1,1′-biphenyl]-3-yl)methoxy)benzyl)amino)ethyl)acetamide]",100 to 20000
8,"COC(=O)CCCOc1cc(OCc2cccc(-c3ccccc3)c2C)ccc1CNCCNC(C)=O [Example 1036, methyl 4-(2-(((2-acetamidoethyl)amino)methyl)-5-((2-methyl-[1,1′-biphenyl]-3-yl)methoxy)phenoxy)butanoate]",100 to 20000
9,"CC(=O)NCCNCc1ccc(OCc2cccc(-c3ccccc3)c2C)cc1OCc1cccc(CO)c1 [Example 1037, N-(2-((2-((3-(hydroxymethyl)benzyl)oxy)-4-((2-methyl-[1,1′-biphenyl]-3-yl)methoxy)benzyl)amino)ethyl)acetamide]",100 to 20000
10,"CC(=O)NCCNCc1ccc(OCc2cccc(-c3ccccc3)c2C)cc1OCc1ccccc1CO [Example 1038, N-(2-((2-((2-(hydroxymethyl)benzyl)oxy)-4-((2-methyl-[1,1′-biphenyl]-3-yl)methoxy)benzyl)amino)ethyl)acetamide]",100 to 20000
11,CC(=O)NCCNCc1ccc(OCc2cccc(-c3ccccc3)c2C)cc1OCc1ccc(C(N)=O)cc1 [Example 1039],100 to 20000
12,"CC(=O)NCCNCc1ccc(OCc2cccc(-c3ccccc3)c2C)cc1OCc1ccc(C(C)=O)cc1 [Example 1040, N-(2-((2-((4-acetylbenzyl)oxy)-4-((2-methyl-[1,1′-biphenyl]-3-yl)methoxy)benzyl)amino)ethyl)acetamide]",100 to 20000
13,"CC(=O)NCCNCc1ccc(OCc2cccc(-c3ccccc3)c2C)cc1OCc1ccccc1S(C)(=O)=O [Example 1041, N-(2-((4-((2-methyl-[1,1′-biphenyl]-3-yl)methoxy)-2-((2-(methylsulfonyl)benzyl)oxy)benzyl)amino)ethyl)acetamide]",100 to 20000
14,"COCCCOc1cc(OCc2cccc(-c3ccccc3)c2C)ccc1CNCCNC(C)=O [Example 1042, N-(2-((2-(3-methoxypropoxy)-4-((2-methyl-[1,1′-biphenyl]-3-yl)methoxy)benzyl)amino)ethyl)acetamide]",100 to 20000
15,"CCOc1cc(OCc2cccc(-c3ccccc3)c2C)ccc1CNCCNC(C)=O [Example 1044, N-(2-((2-ethoxy-4-((2-methyl-[1,1′-biphenyl]-3-yl)methoxy)benzyl)amino)ethyl)acetamide]",100 to 20000
16,"CC(=O)NCCNCc1ccc(OCc2cccc(-c3ccccc3)c2C)cc1OCc1ccccc1C [Example 1045, N-(2-((4-((2-methyl-[1,1′-biphenyl]-3-yl)methoxy)-2-((2-methylbenzyl)oxy)benzyl)amino)ethyl)acetamide]",100 to 20000
17,"CC(=O)NCCNCc1ccc(OCc2cccc(-c3ccccc3)c2C)cc1OCc1ccc(C(C)(C)C)cc1 [Example 1046, N-(2-((2-((4-(tert-butyl)benzyl)oxy)-4-((2-methyl-[1,1′-biphenyl]-3-yl)methoxy)benzyl)amino)ethyl)acetamide]",100 to 20000
18,"CC(=O)NCCNCc1ccc(OCc2cccc(-c3ccccc3)c2C)cc1OCc1ccc(C)cc1 [Example 1047, N-(2-((4-((2-methyl-[1,1′-biphenyl]-3-yl)methoxy)-2-((4-methylbenzyl)oxy)benzyl)amino)ethyl)acetamide]",100 to 20000
19,"CC(=O)NCCNCc1ccc(OCc2cccc(-c3ccccc3)c2C)cc1OCc1ccccc1F [Example 1048, N-(2-((2-((2-fluorobenzyl)oxy)-4-((2-methyl-[1,1′-biphenyl]-3-yl)methoxy)benzyl)amino)ethyl)acetamide]",100 to 20000
20,"CC(=O)NCCNCc1ccc(OCc2cccc(-c3ccccc3)c2C)cc1OCc1c(F)cccc1F [Example 1049, N-(2-((2-((2,6-difluorobenzyl)oxy)-4-((2-methyl-[1,1′-biphenyl]-3-yl)methoxy)benzyl)amino)ethyl)acetamide]",100 to 20000
21,"CC(=O)NCCNCc1ccc(OCc2cccc(-c3ccccc3)c2C)cc1OCc1cccc(F)c1 [Example 1050, N-(2-((2-((3-fluorobenzyl)oxy)-4-((2-methyl-[1,1′-biphenyl]-3-yl)methoxy)benzyl)amino)ethyl)acetamide]",100 to 20000
22,"CC(=O)NCCNCc1ccc(OCc2cccc(-c3ccccc3)c2C)cc1OCc1cccc(C(F)(F)F)c1 [Example 1051, N-(2-((4-((2-methyl-[1,1′-biphenyl]-3-yl)methoxy)-2-((3-(trifluoromethyl)benzyl)oxy)benzyl)amino)ethyl)acetamide]",100 to 20000
23,"CC(=O)NCCNCc1ccc(OCc2cccc(-c3ccccc3)c2C)cc1OCc1ccc(C(F)(F)F)cc1 [Example 1052, N-(2-((4-((2-methyl-[1,1′-biphenyl]-3-yl)methoxy)-2-((4-(trifluoromethyl)benzyl)oxy)benzyl)amino)ethyl)acetamide]",100 to 20000
24,"CC(=O)NCCNCc1ccc(OCc2cccc(-c3ccccc3)c2C)cc1OCc1ccccc1Cl [Example 1053, N-(2-((2-((2-chlorobenzyl)oxy)-4-((2-methyl-[1,1′-biphenyl]-3-yl)methoxy)benzyl)amino)ethyl)acetamide]",100 to 20000
25,"CC(=O)NCCNCc1ccc(OCc2cccc(-c3ccccc3)c2C)cc1OCc1cccc(Cl)c1 [Example 1054, N-(2-((2-((3-chlorobenzyl)oxy)-4-((2-methyl-[1,1′-biphenyl]-3-yl)methoxy)benzyl)amino)ethyl)acetamide]",100 to 20000
26,"CC(=O)NCCNCc1ccc(OCc2cccc(-c3ccccc3)c2C)cc1OCc1ccccc1C#N [Example 1055, N-(2-((2-((2-cyanobenzyl)oxy)-4-((2-methyl-[1,1′-biphenyl]-3-yl)methoxy)benzyl)amino)ethyl)acetamide]",100 to 20000
27,"CC(=O)NCCNCc1ccc(OCc2cccc(-c3ccccc3)c2C)cc1OCc1ccc2ccccc2c1 [Example 1056, N-(2-((4-((2-methyl-[1,1′-biphenyl]-3-yl)methoxy)-2-(naphthalen-2-ylmethoxy)benzyl)amino)ethyl)acetamide]",100 to 20000
28,"CC(=O)NCCNCc1ccc(OCc2cccc(-c3ccccc3)c2C)cc1OCc1ccc([N+](=O)[O-])cc1 [Example 1058, N-(2-((4-((2-methyl-[1,1′-biphenyl]-3-yl)methoxy)-2-((4-nitrobenzyl)oxy)benzyl)amino)ethyl)acetamide]",100 to 20000
29,"CC(=O)NCCNCc1ccc(OCc2cccc(-c3ccccc3)c2C)cc1OCc1ccc(F)c(F)c1 [Example 1059, N-(2-((2-((3,4-difluorobenzyl)oxy)-4-((2-methyl-[1,1′-biphenyl]-3-yl)methoxy)benzyl)amino)ethyl)acetamide]",100 to 20000
30,"CC(=O)NCCNCc1ccc(OCc2cccc(-c3ccccc3)c2C)cc1OCc1cc(F)ccc1F [Example 1060, N-(2-((2-((2,5-difluorobenzyl)oxy)-4-((2-methyl-[1,1′-biphenyl]-3-yl)methoxy)benzyl)amino)ethyl)acetamide]",100 to 20000
